Values of other authors, collected in patent US11582972B2, “Controlled-diffusion semiochemical composition” (MELCHIOR MATERIAL AND LIFE SCIENCE FRANCE, priority 2017, dated 2023).

Test system: Metamasius hemipterus sericeus
Details: for attractiveness: high doses: ethyl acetate >800 mg/d, ethyl propionate >300 mg/d, ethyl butyrate >100 mg/d

SMILES | attractiveness | synergistic effect with pheromones (dose >650 mg/d, in the field)
CCCC(=O)OCC [ethyl butyrate] | as attractive as 250 g of sugarcane | 
CCOC(=O)CC [ethyl propionate] | as attractive as 250 g of sugarcane | 
CCOC(C)=O [ethyl acetate] | as attractive as 250 g of sugarcane | synergistic effect with pheromones equivalent to 250 g of sugarcane
